The text below walks through data of patent publication US9458187B2, “Methods for treatment of inflammatory conditions using S-[4-(3-fleuro-3-methylbutyryloxy)but-2-ynyl]6α, 9α-difluoro-17α-(furan-2-yl) carbonyloxy-11β-hydroxy-16α-methyl-3-oxoandrosta-1,4-diene-17β-carbothioate” (Sun Pharma Advanced Research Company Limited, priority 2013, dated 2016).

The assay deals with T1, Human Glucocorticoid receptor (Homo sapiens, UniProt P04150).
T1 construct: expressed in transfected cells; host or cells: human HeLa cells
T1 sequence (P04150 1-777): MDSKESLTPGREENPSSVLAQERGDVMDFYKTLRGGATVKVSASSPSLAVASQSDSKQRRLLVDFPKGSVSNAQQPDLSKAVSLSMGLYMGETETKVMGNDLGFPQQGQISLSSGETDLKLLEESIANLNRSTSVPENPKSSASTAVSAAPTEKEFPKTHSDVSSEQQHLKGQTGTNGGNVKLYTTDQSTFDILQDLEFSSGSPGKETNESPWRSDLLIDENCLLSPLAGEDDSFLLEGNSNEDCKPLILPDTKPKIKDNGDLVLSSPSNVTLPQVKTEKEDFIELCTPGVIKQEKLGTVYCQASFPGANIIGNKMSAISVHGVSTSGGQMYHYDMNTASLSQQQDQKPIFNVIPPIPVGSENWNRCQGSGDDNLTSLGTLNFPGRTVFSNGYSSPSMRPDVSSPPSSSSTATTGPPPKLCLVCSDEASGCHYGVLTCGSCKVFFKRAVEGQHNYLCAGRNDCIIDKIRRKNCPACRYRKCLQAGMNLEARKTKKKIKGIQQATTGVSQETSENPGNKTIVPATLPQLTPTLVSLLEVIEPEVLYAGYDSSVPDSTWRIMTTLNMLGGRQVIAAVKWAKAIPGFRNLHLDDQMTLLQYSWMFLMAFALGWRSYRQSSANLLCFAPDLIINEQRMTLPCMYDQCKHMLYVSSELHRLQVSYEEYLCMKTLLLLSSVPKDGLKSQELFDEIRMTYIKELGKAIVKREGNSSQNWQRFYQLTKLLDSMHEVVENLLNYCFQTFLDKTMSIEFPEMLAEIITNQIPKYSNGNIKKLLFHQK
The experiment in a line: Human glucocorticoid receptor binding (in vitro), [3H]dexamethasone radioligand. Here is the method: The activity of test compounds on glucocorticoid receptor was assessed using radioligand binding assays.
The % inhibition was evaluated using a single concentration of test compound and the corresponding radiolabeled ligand. Results are presented as the percent inhibition of specific binding. The values are average of duplicate determinations for each concentration.

One may read the IC50 as the concentration that inhibits the measured activity by half. A high value points to a need for much substance. As a reminder, the Ki is the equilibrium dissociation constant of an inhibitor or competing ligand from its target. The compound `C[C@@H]1CC2C3C[C@H](F)C4=CC(=O)C=C[C@]4(C)[C@@]3(F)[C@@H](O)C[C@]2(C)[C@@]1(OC(=O)c1ccco1)C(=O)SCC#CCOC(=O)CC(C)(C)F` (stereo partly drawn) [Formula I, S-[4-(3-Fluoro-3-methylbutyryloxy)but-2-ynyl]6α,9α-difluoro-17α-(furan-2-yl)carbonyloxy-11β-hydroxy-16α-methyl-3-oxoandrosta-1,4-diene-17β-carbothioate] returned a half-maximal inhibitory concentration (IC50) of 2.3 nM and a Ki of 1.24 nM. The “potency and selectivity towards human glucocorticoid receptor” value (compared with aldosterone, estrogen, progesterone and testosterone receptors) is “good potency and selectivity”.
